From patent EP3818828A1 (priority 2019, dated 2021)
Several values for one entry are separate records, joined by “and”; a condition that tells them apart may be missing. Identical values can stand only once.

Columns and labels:
[1] = tested on: Erysiphe cucurbitacearum or Sphaerotheca cucurbitae; experiment: In-vivo greenhouse control of zucchini powdery mildew
Procedure: 3.88 g of 3-(3',4'-methylenedioxy phenyl)-N-n-propyl acrylamide was weighed and dissolved in 25 g of absolute ethyl alcohol, then 6 g of emulsifier 0203B was added, and mixed uniformly with stirring to get 10% of 3-(3',4'-methylenedioxy phenyl)-N-n-propyl acrylamide EC.
5.61 g of 3-(3',4'-methylenedioxy phenyl)-piperidine acrylate was weighed and dissolved in 25 g of absolute ethyl alcohol, then 6 g of emulsifier 0203B was added, and mixed uniformly with stirring to get 14% of 3-(3',4'-methylenedioxy phenyl)-piperidine acrylate EC.
Zucchini (Variety: Wuwei Xianglin extra-early 1st generation) was cultured in pots in a greenhouse, and inoculated with Erysiphe cucurbitacearum or Sphaerotheca cucurbitae at the stage of 3 to 4 leaves. The first application was started at the early onset (onset at the first true leaf: first appearance of spots), comprising 10% of 3-(3',4'-methylenedioxy phenyl)-N-n-propyl acrylamide EC and 14% of 3-(3',4'-methylenedioxy phenyl)-piperidine acrylate EC, which were both diluted at four concentrations of 0.50, 0.333, 0.25, 0.20 mg/mL (active ingredients), additionally clear water was used as the control. Both sides of the leaves were sprayed evenly with a small hand-held sprayer so that the leaves were wetted by the liquor without loss. Applications were conducted every 7 days consecutively for 4 times. 10 days after the fourth application, the number of sick leaves at each grade of powdery mildew was investigated for the whole plant following the grading standard of 9 grades, to calculate the disease index and the control effect. The computational formula is as below: Disease index = [(Number of sick leaves at each grade×Corresponding grade value)/(Total number of investigated leaves×9)] × 100; [formula] Control effect = (Disease index of the clear water control−Treated disease index)/Disease index of the clear water control × 100. [formula]

Valsa mali = experiment: Ex vivo mycelial growth inhibition, growth rate method; assay type: cell-based; conditions: 1 mg/mL; for inhibition at 1000 µg/mL: Cytospora mali
Method in brief: (§1)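 Read-out is colony diameter by the cross method, converted to percent inhibition relative to the DMSO-only control. Plugs of 4 mm sat on PDA containing 5-7 graded concentrations of each DMSO-dissolved agent, in triplicate. Plates were held at 22±1.5°C for 7 days, or 10-20 days for some fungi.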

Coniella diplodiella = experiment: as above; assay type: cell-based; conditions: 1 mg/mL
Method in brief: as §1

C. gossypii = experiment: as above; assay type: cell-based; conditions: 1 mg/mL; for Average Diameter of the Colony: C. gossypii; for inhibition at 1000 µg/mL: Colletotrichum gossypii, C. cossypii, read-out: Inhibition Rate
Method in brief: as §1

Pythium aphanidermatum = experiment: as above; assay type: cell-based; conditions: 1 mg/mL
Method in brief: as §1

Mycosphaerlla melonis = experiment: as above; assay type: cell-based; conditions: 1 mg/mL
Method in brief: as §1

[2] = tested on: Botryosphaeriana berengeriana; experiment: as above; assay type: cell-based; conditions: 1 mg/mL
Method in brief: as §1

F. verticillioide = experiment: as above; assay type: cell-based; conditions: 1 mg/mL
Method in brief: as §1

Rhizoctonia solani = experiment: as above; assay type: cell-based; conditions: for Average Diameter of the Colony / inhibition at 1000 µg/mL: Rhizoctonia solani, 1 mg/mL
Method in brief: as §1

[3] = tested on: Gaeumannomyces graminis var. graminis and G. graminis var. tritici; experiment: as above; assay type: cell-based; conditions: 1 mg/mL
Method in brief: as §1

[4] = tested on: Botryosphaeria berengeriana; experiment: as above; assay type: cell-based; conditions: 1 mg/mL
Method in brief: as §1

Thanatephorus cucumeris = experiment: as above; assay type: cell-based; conditions: 1 mg/mL
Method in brief: as §1

Sclerotinia sclerotiorum = experiment: as above; assay type: cell-based; conditions: 1 mg/mL
Method in brief: as §1

Colletotrichum capsici = experiment: as above; assay type: cell-based; conditions: 1 mg/mL; for inhibition at 1000 µg/mL: Colletotrichum truncatum
Method in brief: as §1

Phytophthora capsici = experiment: as above; assay type: cell-based; conditions: for Average Diameter of the Colony / inhibition at 1000 µg/mL: Phytophthora capsici, 1 mg/mL; for antifungal activity against Phytophthora capsici: supplementary determination, compared with hymexazol
Method in brief: as §1

Botrytis cinerea = experiment: as above; assay type: cell-based; conditions: 1 mg/mL
Method in brief: as §1

F. oxysporum f. sp. lini = experiment: as above; assay type: cell-based; conditions: 1 mg/mL; for inhibition at 1000 µg/mL: Fusarium oxysporum
Method in brief: as §1

Exserohilum turcicum = experiment: as above; assay type: cell-based; conditions: 1 mg/mL
Method in brief: as §1

[5] = tested on: F. oxysporum f. sp. vasinfectum; experiment: as above; assay type: cell-based; conditions: 1 mg/mL; for inhibition at 1000 µg/mL: Fusarium oxysporum
Method in brief: as §1

[6] = 0.333 mg/mL (active ingredients)
[7] = 0.50 mg/mL (active ingredients), spray every 7 days, 4 times

Compound | Control Effect [1, 6] [%] | Control Effect [1, 7] | Average Diameter of the Colony (Valsa mali) [cm] | inhibition at 1000 µg/mL (Valsa mali) [%] | Average Diameter of the Colony (Coniella diplodiella) [cm] | inhibition at 1000 µg/mL (Coniella diplodiella) [%] | Average Diameter of the Colony (C. gossypii) [cm] | inhibition at 1000 µg/mL (C. gossypii) [%] | Average Diameter of the Colony (Pythium aphanidermatum) [cm] | inhibition at 1000 µg/mL (Pythium aphanidermatum) [%] | Average Diameter of the Colony (Mycosphaerlla melonis) [cm] | inhibition at 1000 µg/mL (Mycosphaerlla melonis) [%] | Average Diameter of the Colony [2] [cm] | inhibition at 1000 µg/mL [2] [%] | Average Diameter of the Colony (F. verticillioide) [cm] | inhibition at 1000 µg/mL (F. verticillioide) [%] | Average Diameter of the Colony (Rhizoctonia solani) [cm] | inhibition at 1000 µg/mL (Rhizoctonia solani) [%] | Average Diameter of the Colony [3] [cm] | inhibition at 1000 µg/mL [3] [%] | other results
CCCNC(=O)/C=C/c1ccc2c(c1)OCO2 [3-(3',4'-methylenedioxyphenyl)-N-n-propyl acrylamide] | 77.13 | 91.09% | 0.65 | 91.8 | 0.00 | 100 | 1.74 | 67.8 | 0.21 | 96.9 | 0.58 | 93.3 | 4.63 | 18.8 | 2.94 | 13 | 0.25 | 96.5 | 3.05 | 57.3 | Average Diameter of the Colony [4]: 3.60 cm; inhibition at 1000 µg/mL [4]: 47.1%; Average Diameter of the Colony (Thanatephorus cucumeris): 3.51 cm; inhibition at 1000 µg/mL (Thanatephorus cucumeris): 59.2%; Average Diameter of the Colony (Sclerotinia sclerotiorum): 3.28 cm; inhibition at 1000 µg/mL (Sclerotinia sclerotiorum): 61.9%; Average Diameter of the Colony (Colletotrichum capsici): 1.66 cm; inhibition at 1000 µg/mL (Colletotrichum capsici): 75.5%; Average Diameter of the Colony (Phytophthora capsici): 0.65 cm; inhibition at 1000 µg/mL (Phytophthora capsici): 87.7%; antifungal activity against Phytophthora capsici (Phytophthora capsici): superior to that of the control agent, hymexazol; Average Diameter of the Colony (Botrytis cinerea): 1.35 cm; inhibition at 1000 µg/mL (Botrytis cinerea): 82%; Average Diameter of the Colony (F. oxysporum f. sp. lini): 6.30 cm; inhibition at 1000 µg/mL (F. oxysporum f. sp. lini): 30%; Average Diameter of the Colony (Exserohilum turcicum): 1.44 cm; inhibition at 1000 µg/mL (Exserohilum turcicum): 76.8%; Average Diameter of the Colony [5]: 3.03 cm; inhibition at 1000 µg/mL [5]: 58.1%
O=C(/C=C/c1ccc2c(c1)OCO2)N1CCCCC1 [3-(3',4'-methylenedioxyphenyl)-piperidine acrylate] | 67.06 | 67.06% and 87.13% | 0.00 | 100 | 0.00 | 100 | 0.10 | 98.2 | 0.06 | 99.1 | 0.00 | 100 | 0.14 | 97.5 | 0.49 | 85.5 | 0.00 | 100 | 0.39 | 94.5 | antifungal activity against Rhizoctonia solani (Rhizoctonia solani; supplementary determination, compared with chlorothalonil, dimethomorph and azoxystrobin): superior to that of chlorothalonil, dimethomorph and azoxystrobin; Average Diameter of the Colony [4]: 0.22 cm; inhibition at 1000 µg/mL [4]: 96.8%; Average Diameter of the Colony (Thanatephorus cucumeris): 0.00 cm; inhibition at 1000 µg/mL (Thanatephorus cucumeris): 100%; Average Diameter of the Colony (Sclerotinia sclerotiorum): 0.00 cm; inhibition at 1000 µg/mL (Sclerotinia sclerotiorum): 100%; Average Diameter of the Colony (Colletotrichum capsici): 0.28 cm; inhibition at 1000 µg/mL (Colletotrichum capsici): 95.9%; Average Diameter of the Colony (Phytophthora capsici): 0.00 cm; inhibition at 1000 µg/mL (Phytophthora capsici): 100%; antifungal activity against Phytophthora capsici (Phytophthora capsici): superior to that of the control agent, hymexazol; Average Diameter of the Colony (Botrytis cinerea): 0.25 cm; inhibition at 1000 µg/mL (Botrytis cinerea): 96.7%; Average Diameter of the Colony (F. oxysporum f. sp. lini): 2.73 cm; inhibition at 1000 µg/mL (F. oxysporum f. sp. lini): 69.7%; Average Diameter of the Colony (Exserohilum turcicum): 0.34 cm; inhibition at 1000 µg/mL (Exserohilum turcicum): 94.5%; Average Diameter of the Colony [5]: 0.40 cm; inhibition at 1000 µg/mL [5]: 94.5%
